Results taken from US7655392B2, “Quenching methods for red blood cell inactivation process” (priority 2004, dated 2010).
Like-named read-outs stand apart in the source and are kept apart here.

Legend:
[1] = tested on: Serratia marcescens; format: cell-based
[2] = tested on: red blood cells; format: cell-based
Procedure: In another assay, the rabbit polyclonal sera may be reacted with treated red blood cells. After washing off unbound antibody, a FITC labeled goat anti-rabbit Fab′2 fragment (anti H+L chains, Caltag) is added. The binding of FITC label to the red blood cells correlates with the amount of acridine bound to the red blood cell surface, and is assessed by FACScan™ analysis (Becton, Dickinson and Co., NJ). The relative modification of the red blood cells is determined from the FACScan™ mean fluorescence value.
A 20 mL sample of leukoreduced whole blood (Blood Source, Sacramento, Calif.) was centrifuged at 4,100×g for 5 minutes at room temperature in each of four 50 mL centrifuge tubes. The supernatant was removed from each tube to provide red cell concentrate (RCC). […] For each washed RCC, cells were resuspended in 5 mL of the solution used for washing. This is now referred to as the RBC test sample. […] These samples were incubated for 20 hours at room temperature. After incubation, the RBC were washed in BBS (Blood Bank Saline, 0.9% saline, unbuffered, Fisher Scientific) and were diluted to a final hematocrit of 4%. A 25 μL aliquot of each was mixed with 15 μL of rabbit polyclonal anti-acridine sera diluted 1:100 in BBS and the mixture was incubated at 37° C. for 30 minutes. The cells were subsequently washed with 1.5 mL BBS. After washing was complete, the cells were mixed with 50 μL of FITC labeled goat anti-rabbit Fab′2 fragment (1:64 dilution in BBS) and incubated at 37° C. for 30 minutes. […] Note that the quenching improves as glutathione is neutralized with increasing amounts of sodium hydroxide.
The FACScan analysis of the binding of rabbit anti-acridine sera to treated red cells was used to assess a variety of quenching conditions. […] The tables represent data from two different experiments, each with samples treated under standard conditions or with 20 mM neutralized glutathione. […] The data within an experiment provides the relative efficacy of the various treatments. Because the assay may depend on the lot of red blood cells used, the absolute values of mean fluorescence may vary from one study to the next, such that relative values should only be compared within a given experiment. […] Neutralized glutathione at 20 mM results in close to background levels.
An untreated control sample as well as a standard sample (co-addition of 2 mM acidic glutathione with 0.2 mM PIC-1) were also assessed.
Full units of red cell concentrates (Interstate Blood Bank, Inc., Memphis, Tenn.) were leukoreduced. A volume of 200 mL of this RCC (80% hematocrit) was mixed with 94 mL of Erythrosol or 100 mL of Adsol (Baxter Healthcare Corp., Deerfield, Ill.) as control (unit 1). A volume of 20 mL 8% dextrose was used to dissolve PIC-1 (mg) and acid glutathione (mg) and added to one unit to provide 0.2 mM PIC-1 and 2 mM glutathione (unit 2). […] For the glutathione, 1.2 mL of 10 N NaOH was added (2 equivalents). The PIC-1 was mixed with the unit, followed 1 minute later (unit 3) or 5 minutes later (unit 4) by glutathione. For unit 5, neutralized glutathione was mixed first, followed 10 minutes later by the PIC-1. […] All units were mixed by grasping the ends of the blood bag and mixing in a FIG. 8 motion 30 times. These were then incubated at room temperature for 20 hours total. A compound adsorption device (CAD), comprising a polymeric resin contained within a mesh pouch, was used for all but the control sample. This device is intended to remove residual PIC-1, PIC-1 breakdown products, and glutathione from the samples. Samples were incubated for 8 hours, then transferred to a second blood bag containing the CAD and incubated for an additional 12 hours. Following the room temperature incubation, samples were transferred to a refrigerator (4° C.) and stored up to 43 days.

[3] = 0.2 mM PIC-1+2 mM glutathione, 0.9 eq base, formulated together
[4] = 0.2 mM PIC-1+20 mM glutathione, 0 eq base, formulated together
[5] = 0.2 mM PIC-1+20 mM glutathione, 0.9 eq base, formulated together (PIC-1 precipitated)
[6] = 0.2 mM PIC-1+20 mM glutathione, 1.5 eq base, formulated together (PIC-1 precipitated)
[7] = 0.2 mM PIC-1+20 mM glutathione, 2 eq base, formulated together (PIC-1 precipitated)
[8] = 0.2 mM PIC-1 first, 20 mM glutathione+2 eq base shortly after (sequential)
[9] = Table 2B: 0.2 mM PIC-1, then 20 mM glutathione+2 eq base after 1 min
[10] = Table 2B: 0.2 mM PIC-1, then 20 mM glutathione+2 eq base after 5 min
[11] = Table 2B: 0.2 mM PIC-1, then 20 mM glutathione+2 eq base after 10 min
[12] = Table 2B: 0.2 mM PIC-1, then 20 mM glutathione+2 eq base after 20 min
[13] = Table 2B: 0.2 mM PIC-1 and 2 mM glutathione, 0 eq base, simultaneous
[14] = Table 2B: 0.2 mM PIC-1 and 20 mM glutathione, 0 eq base, simultaneous
[15] = Table 2B: 20 mM glutathione+2 eq base, then 0.2 mM PIC-1 after 1 min
[16] = Table 2B: 20 mM glutathione+2 eq base, then 0.2 mM PIC-1 after 10 min
[17] = Table 5A: 0.2 mM PIC-1, then 20 mM GSH+2 eq base after 1 min
[18] = Table 5A: 10 mM Cys+10 mM GSH, 2 eq base each, then 0.2 mM PIC-1 after 10 min
[19] = Table 5A: 15 mM Cys+5 mM GSH, 2 eq base each, then 0.2 mM PIC-1 after 10 min
[20] = Table 5A: 20 mM Cys+2 eq base, then 0.2 mM PIC-1 after 10 min
[21] = Table 5A: 20 mM GSH+2 eq base, then 0.2 mM PIC-1 after 10 min
[22] = Table 5B: 0.2 mM PIC-1+2 mM GSH, 0 eq base, no delay
[23] = Table 5B: 5 mM Cys+2 eq base, then 0.2 mM PIC-1 after 5 min
[24] = Table 5B: 5 mM Cys+2 eq base, then 0.2 mM PIC-1 after 10 min
[25] = Table 5B: 5 mM Cys+2 eq base, then 0.2 mM PIC-1 after 20 min
[26] = Table 5B: 10 mM Cys+2 eq base, then 0.2 mM PIC-1 after 10 min
[27] = Table 5B: 15 mM Cys+2 eq base, then 0.2 mM PIC-1 after 10 min
[28] = Table 5B: 20 mM Cys+2 eq base, then 0.2 mM PIC-1 after 5 min
[29] = Table 5B: 20 mM Cys+2 eq base, then 0.2 mM PIC-1 after 10 min
[30] = Table 5B: 20 mM GSH+2 eq base, then 0.2 mM PIC-1 after 10 min
[31] = Table 5B: […] Cys+2 eq base, then 0.2 mM PIC-1 after 10 min

O=C(CCNc1c2ccccc2nc2ccccc12)OCCN(CCCl)CCCl [PIC-1]
Log S. marcescens reduction [1, 3]: 4.27 Log | Log S. marcescens titer [1, 3]: 2.8 Log | Log S. marcescens reduction [1, 4]: 2.40 Log | Log S. marcescens titer [1, 4]: 4.6 Log | Log S. marcescens reduction [1, 5]: 2.26 Log | Log S. marcescens titer [1, 5]: 4.8 Log | Log S. marcescens reduction [1, 6]: 1.66 Log | Log S. marcescens titer [1, 6]: 5.4 Log | Log S. marcescens reduction [1, 7]: 0.76 Log | Log S. marcescens titer [1, 7]: 6.3 Log | Log S. marcescens reduction [1, 8]: 3.02 Log | Log S. marcescens titer [1, 8]: 4.0 Log | Log S. marcescens reduction [1, 9]: 3.36 Log | Log S. marcescens titer [1, 9]: 3.40 Log | Log S. marcescens reduction [1, 10]: 3.89 Log | Log S. marcescens titer [1, 10]: 2.87 Log | Log S. marcescens reduction [1, 11]: 4.96 Log | Log S. marcescens titer [1, 11]: 1.80 Log | Log S. marcescens reduction [1, 12]: 6.76 Log | Log S. marcescens titer [1, 12]: 0.00 Log | Log S. marcescens reduction [1, 13]: 5.25 Log | Log S. marcescens titer [1, 13]: 1.51 Log | Log S. marcescens reduction [1, 14]: 0.71 Log | Log S. marcescens titer [1, 14]: 6.05 Log | Log S. marcescens reduction [1, 15]: 3.66 Log | Log S. marcescens titer [1, 15]: 3.10 Log | Log S. marcescens reduction [1, 16]: 3.68 Log | Log S. marcescens titer [1, 16]: 3.08 Log | Log S. marcescens reduction [1, 17]: 2.7 Log | Log S. marcescens titer [1, 17]: 4.8 Log | Log S. marcescens reduction [1, 18]: 3.0 Log | Log S. marcescens titer [1, 18]: 4.5 Log | Log S. marcescens reduction [1, 19]: 3.7 Log | Log S. marcescens titer [1, 19]: 3.8 Log | Log S. marcescens reduction [1, 20]: 3.1 Log | Log S. marcescens titer [1, 20]: 4.4 Log | Log S. marcescens reduction [1, 21]: 3.4 Log | Log S. marcescens titer [1, 21]: 4.1 Log | Log S. marcescens reduction [1, 22]: 4.1 Log | Log S. marcescens titer [1, 22]: 3.5 Log | Log S. marcescens reduction [1, 23]: 3.2 Log | Log S. marcescens titer [1, 23]: 4.4 Log | Log S. marcescens reduction [1, 24]: 3.2 Log | Log S. marcescens titer [1, 24]: 4.4 Log | Log S. marcescens reduction [1, 25]: 2.9 Log | Log S. marcescens titer [1, 25]: 4.7 Log | Log S. marcescens reduction [1, 26]: 2.7 Log | Log S. marcescens titer [1, 26]: 4.9 Log | Log S. marcescens reduction [1, 27]: 3.1 Log | Log S. marcescens titer [1, 27]: 4.5 Log | Log S. marcescens reduction [1, 28]: 3.2 Log | Log S. marcescens titer [1, 28]: 4.4 Log | Log S. marcescens reduction [1, 29]: 3.0 Log | Log S. marcescens titer [1, 29]: 4.6 Log | Log S. marcescens reduction [1, 30]: 3.2 Log | Log S. marcescens titer [1, 30]: 4.4 Log | Log S. marcescens reduction [1, 31]: 3.7 Log | Log S. marcescens titer [1, 31]: 3.9 Log | log inactivation ([1]; all conditions of Tables 5A, 5B, 5C (cysteine and/or glutathione, 0.2 mM PIC-1)): at least 3 log | inactivation difference from the standard condition ([1]; cysteine or glutathione quenching, Tables 5A-5C): 1-1.5 log | mean fluorescence ([2]; 16C day 0.8, unit 2: standard 0.2 mM PIC-1+2 mM GSH): 284 | mean fluorescence ([2]; 16C day 0.8, unit 3: 0.2 mM PIC-1, 1' delay, 20 mM GSH+2 eq base): 20.1 | mean fluorescence ([2]; 16C day 0.8, unit 4: 0.2 mM PIC-1, 5' delay, 20 mM GSH+2 eq base): 46.0 | mean fluorescence ([2]; 16C day 0.8, unit 5: 20 mM GSH+2 eq base, 10' delay, 0.2 mM PIC-1): 20.0 | mean fluorescence ([2]; 16C day 2, unit 2: standard 0.2 mM PIC-1+2 mM GSH): 193.5 | mean fluorescence ([2]; 16C day 2, unit 3: 0.2 mM PIC-1, 1' delay, 20 mM GSH+2 eq base): 14.58 | mean fluorescence ([2]; 16C day 2, unit 4: 0.2 mM PIC-1, 5' delay, 20 mM GSH+2 eq base): 34.07 | mean fluorescence ([2]; 16C day 2, unit 5: 20 mM GSH+2 eq base, 10' delay, 0.2 mM PIC-1): 12.31 | mean fluorescence ([2]; 16C day 7, unit 2: standard 0.2 mM PIC-1+2 mM GSH): 142.1 | mean fluorescence ([2]; 16C day 7, unit 3: 0.2 mM PIC-1, 1' delay, 20 mM GSH+2 eq base): 4.96 | mean fluorescence ([2]; 16C day 7, unit 4: 0.2 mM PIC-1, 5' delay, 20 mM GSH+2 eq base): 18.84 | mean fluorescence ([2]; 16C day 7, unit 5: 20 mM GSH+2 eq base, 10' delay, 0.2 mM PIC-1): 5.34
